This is an account of results in patent US9670194B2 (Calitor Sciences, LLC, priority 2013, dated 2017).

Data set [1] can be described thus: Pharmacokinetics after intravenous and oral administration in rats. In kind it is in vivo, rat. Particulars: for clearance (CL) / AUC(0-t) / half-life / Vd: iv dosing, dose 1 mg/kg; for bioavailability / AUC(0-t) / half-life / Vd: rat, plasma; for bioavailability: iv dose 1 mg/kg, oral dose generally 5 or 10 mg/kg; for Vd: read-out: Vss.
Data set [2] is described as follows: Compound stability in human liver microsomes. In kind it is in vitro ADME. Particulars: for half-life at 5 μM: human liver microsomes 0.5 mg protein/mL, compound 5 μM, NADPH 1.0 mM, 37° C.; for CLint scaled at 5 μM: human liver microsomes, in vivo CLint extrapolated.
In another data set the target is PI3K (p110δ/p85α) (h) (Homo sapiens (Human), UniProt O00329). Briefly: PI3K (p110δ/p85α) (h) non-radioactive HTRF kinase assay. Format: biochemical. Background: In TR-FRET formats the signal depends on donor and acceptor labels being close together.
Data set [3] can be described thus: Compound stability in rat liver microsomes. Format: in vitro ADME. Particulars: pH 7.4; for half-life at 5 μM: rat liver microsomes 0.5 mg protein/mL, compound 5 μM, NADPH 1.0 mM, 37° C.; for CLint scaled at 5 μM: rat liver microsomes, in vivo CLint extrapolated.

PI3K (p110δ/p85α) (h), sequence (O00329 whole entry): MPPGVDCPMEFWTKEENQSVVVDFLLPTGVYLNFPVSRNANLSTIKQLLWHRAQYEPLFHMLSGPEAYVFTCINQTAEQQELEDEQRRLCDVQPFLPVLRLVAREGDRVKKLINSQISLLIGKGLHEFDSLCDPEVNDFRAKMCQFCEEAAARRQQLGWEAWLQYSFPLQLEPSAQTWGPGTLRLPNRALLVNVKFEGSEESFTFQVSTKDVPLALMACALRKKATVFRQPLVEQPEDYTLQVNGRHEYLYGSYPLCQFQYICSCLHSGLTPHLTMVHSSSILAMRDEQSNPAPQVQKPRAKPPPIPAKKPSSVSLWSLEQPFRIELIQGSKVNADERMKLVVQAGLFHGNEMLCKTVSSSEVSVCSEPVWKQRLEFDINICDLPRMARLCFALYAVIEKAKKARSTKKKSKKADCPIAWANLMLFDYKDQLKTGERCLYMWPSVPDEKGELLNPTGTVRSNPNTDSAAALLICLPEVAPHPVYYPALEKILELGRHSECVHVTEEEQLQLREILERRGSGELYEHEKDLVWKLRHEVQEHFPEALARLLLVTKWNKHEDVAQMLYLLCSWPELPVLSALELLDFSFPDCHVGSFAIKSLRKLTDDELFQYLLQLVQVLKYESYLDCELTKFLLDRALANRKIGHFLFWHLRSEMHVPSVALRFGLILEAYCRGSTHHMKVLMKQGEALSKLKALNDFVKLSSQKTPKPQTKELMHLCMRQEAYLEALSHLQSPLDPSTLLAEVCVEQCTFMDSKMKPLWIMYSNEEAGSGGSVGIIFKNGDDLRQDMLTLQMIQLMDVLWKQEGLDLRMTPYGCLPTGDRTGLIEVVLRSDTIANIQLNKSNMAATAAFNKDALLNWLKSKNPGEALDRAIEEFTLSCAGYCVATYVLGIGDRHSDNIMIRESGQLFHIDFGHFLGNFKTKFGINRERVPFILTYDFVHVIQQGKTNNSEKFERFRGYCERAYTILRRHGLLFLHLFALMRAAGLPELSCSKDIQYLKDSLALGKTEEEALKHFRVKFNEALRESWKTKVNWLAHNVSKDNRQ
PI3K (p110δ/p85α) (h), sequence (P27986 whole entry partner): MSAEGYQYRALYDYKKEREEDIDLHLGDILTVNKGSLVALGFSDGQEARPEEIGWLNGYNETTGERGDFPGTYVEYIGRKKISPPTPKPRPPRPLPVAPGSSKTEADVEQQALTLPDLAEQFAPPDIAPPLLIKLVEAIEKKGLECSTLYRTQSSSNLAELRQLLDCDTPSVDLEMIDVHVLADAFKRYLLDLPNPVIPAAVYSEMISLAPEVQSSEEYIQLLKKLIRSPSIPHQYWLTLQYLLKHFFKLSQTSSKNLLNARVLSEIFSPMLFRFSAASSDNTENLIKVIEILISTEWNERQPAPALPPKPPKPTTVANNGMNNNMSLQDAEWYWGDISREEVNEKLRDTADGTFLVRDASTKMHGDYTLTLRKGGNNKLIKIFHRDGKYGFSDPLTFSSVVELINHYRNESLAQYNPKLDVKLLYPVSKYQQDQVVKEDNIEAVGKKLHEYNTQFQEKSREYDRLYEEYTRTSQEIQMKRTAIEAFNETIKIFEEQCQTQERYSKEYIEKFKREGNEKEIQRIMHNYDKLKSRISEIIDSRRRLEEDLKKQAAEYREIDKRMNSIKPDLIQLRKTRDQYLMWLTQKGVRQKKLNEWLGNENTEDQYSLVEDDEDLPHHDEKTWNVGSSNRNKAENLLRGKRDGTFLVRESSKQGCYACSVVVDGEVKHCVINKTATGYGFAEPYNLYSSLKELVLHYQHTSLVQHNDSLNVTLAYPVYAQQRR

Turning to `CC[C@H](Nc1ncnc(N)c1-c1nc(C)no1)c1nc2cccc(C)c2c(=O)n1C1CC1` [Ex. 21, (S)-2-(1-((6-amino-5-(3-methyl-1,2,4-oxadiazol-5-yl)pyrimidin-4-yl)amino)-propyl)-3-cyclopropyl-5-methylquinazolin-4(3H)-one], in data set [1], the “clearance (CL)” value is 55.8 mL/min/kg; the bioavailability came out at 57.5%; the AUC(0-t) (as a rule, exposure summed from dosing to a finite time, without extrapolation to infinity) was 292 ng·h/mL; the half-life – broadly, how long it takes for the measured level to halve – is 96.6 min. In addition, in data set [1], the Vd is 6.24 L/kg. Also, in data set [2], the half-life at 5 μM came out at 25.4 min and the CLint scaled (in general, a measure of how fast metabolising enzymes remove a compound, apart from limits set by blood flow) at 5 μM is 97.7 mL/min/kg. Besides, the 50% inhibitory concentration (IC50) (in general, the concentration needed to halve the response being measured) on PI3K (p110δ/p85α) (h) came to 19 nM. In data set [3], the half-life at 5 μM turned out to be 25 min and the intrinsic metabolic clearance (CLint scaled) at 5 μM was 99.3 mL/min/kg.
On to `CC[C@H](Nc1ncnc(N)c1-c1ncn(C)n1)c1nc2cccc(Cl)c2c(=O)n1C1CC1` [Ex. 53, (S)-2-(1-((6-amino-5-(1-methyl-1H-1,2,4-triazol-3-yl)pyrimidin-4-yl)amino)-propyl)-5-chloro-3-cyclopropylquinazolin-4(3H)-one], for which, in data set [1], the “clearance (CL)” value worked out at 38.2 mL/min/kg, the bioavailability came out at 97.3%, the AUC(0-t) was 429 ng·h/mL and the half-life was 97.2 min. The Vd in data set [1] came to 3.88 L/kg. Besides, in data set [2], the half-life at 5 μM came to 28 min and the intrinsic clearance (CLint scaled) at 5 μM is 62.1 mL/min/kg. Besides, the IC50 on PI3K (p110δ/p85α) (h) is 239 nM. In data set [3], the half-life at 5 μM came out at 34.1 min and the CLint scaled at 5 μM was 72.9 mL/min/kg.
As for `CCc1nc(-c2c(N)ncnc2N[C@@H](C)c2nc3cccc(Cl)c3c(=O)n2C2CC2)no1` [Ex. 61, (S)-2-(1-((6-amino-5-(5-ethyl-1,2,4-oxadiazol-3-yl)pyrimidin-4-yl)amino)ethyl)-5-chloro-3-cyclopropylquinazolin-4(3H)-one], in data set [1], the “clearance (CL)” value amounted to 97.5 mL/min/kg, the AUC(0-t) was 169 ng·h/mL, the half-life is 60 min and the Vd worked out at 7.07 L/kg. Besides, in data set [2], the half-life at 5 μM turned out to be 6.07 min and the intrinsic metabolic clearance (CLint scaled) at 5 μM was 286 mL/min/kg. Besides, the half-maximal inhibitory concentration (IC50) on PI3K (p110δ/p85α) (h) came out at 44 nM. Moreover, in data set [3], the half-life at 5 μM came to 3.29 min and the CLint scaled at 5 μM was 755 mL/min/kg.
As for `CCc1noc(-c2c(N)ncnc2N[C@@H](CC)c2nc3cccc(Cl)c3c(=O)n2C2CC2)n1` [Ex. 56, (S)-2-(1-((6-amino-5-(3-ethyl-1,2,4-oxadiazol-5-yl)pyrimidin-4-yl)amino)-propyl)-5-chloro-3-cyclopropylquinazolin-4(3H)-one], in data set [1], the “clearance (CL)” value was 74.7 mL/min/kg, the bioavailability is 60.9%, the AUC(0-t) worked out at 217 ng·h/mL and the half-life was 104 min. The Vd in data set [1] was 8.12 L/kg. Also, in data set [2], the half-life at 5 μM worked out at 20 min and the intrinsic clearance (CLint scaled) at 5 μM is 87 mL/min/kg. In addition, the IC50 at PI3K (p110δ/p85α) (h) is 9 nM. Besides, in data set [3], the half-life at 5 μM came out at 20.4 min and the CLint scaled at 5 μM was 122 mL/min/kg.
Turning to `CC[C@H](Nc1ncnc(N)c1-c1nnc(C)o1)c1nc2cccc(C)c2c(=O)n1-c1ccccc1` [Ex. 38, (S)-2-(1-((6-amino-5-(5-methyl-1,3,4-oxadiazol-2-yl)pyrimidin-4-yl)amino)-propyl)-5-methyl-3-phenylquinazolin-4(3H)-one], in data set [1], the “clearance (CL)” value was 71.3 mL/min/kg, the bioavailability worked out at 36.6%, the AUC(0-t) was determined as 236 ng·h/mL and the half-life was 39.3 min. In data set [1], the Vd was found to be 3.05 L/kg. Besides, in data set [2], the half-life at 5 μM was determined as 16 min and the intrinsic metabolic clearance (CLint scaled) at 5 μM is 109 mL/min/kg. Further, at PI3K (p110δ/p85α) (h), the half-maximal inhibitory concentration (IC50) came to 12 nM. Also, in data set [3], the half-life at 5 μM worked out at 8.57 min and the CLint scaled at 5 μM is 290 mL/min/kg.
For the compound `CC[C@H](Nc1ncnc(N)c1-c1nnc(C)o1)c1nc2cccc(F)c2c(=O)n1-c1ccccc1` [Ex. 40, (S)-2-(1-((6-amino-5-(5-methyl-1,3,4-oxadiazol-2-yl)pyrimidin-4-yl)amino)-propyl)-5-fluoro-3-phenylquinazolin-4(3H)-one], in data set [1], the “clearance (CL)” value stood at 57.3 mL/min/kg, the bioavailability stood at 112%, the AUC(0-t) worked out at 292 ng·h/mL and the half-life was 40.2 min. Further, the Vd in data set [1] was found to be 2.99 L/kg. In addition, in data set [2], the half-life at 5 μM was 28 min and the CLint scaled at 5 μM was 62.1 mL/min/kg. The IC50 on PI3K (p110δ/p85α) (h) was 93 nM. In data set [3], the half-life at 5 μM amounted to 12.6 min and the CLint scaled at 5 μM is 198 mL/min/kg.
Consider `C[C@H](Nc1ncnc(N)c1-c1ncn(C)n1)c1nc2cccc(Cl)c2c(=O)n1C1CC1` [Ex. 44, (S)-2-(1-((6-amino-5-(1-methyl-1H-1,2,4-triazol-3-yl)pyrimidin-4-yl)amino)-ethyl)-5-chloro-3-cyclopropylquinazolin-4(3H)-one], for which, in data set [1], the “clearance (CL)” value was found to be 73.7 mL/min/kg, the bioavailability was 14%, the AUC(0-t) came to 231 ng·h/mL and the half-life is 34.2 min. The Vd in data set [1] came to 2.51 L/kg. For the same compound, in data set [2], the half-life at 5 μM came to 13.6 min and the intrinsic clearance (CLint scaled) at 5 μM was 128 mL/min/kg. Besides, the half-inhibitory concentration (IC50) at PI3K (p110δ/p85α) (h) was 358 nM. For the same compound, in data set [3], the half-life at 5 μM came out at 13 min and the CLint scaled at 5 μM was 191 mL/min/kg.
For `CC[C@H](Nc1ncnc(N)c1-c1ncn(C)n1)c1nc2cccc(Cl)c2c(=O)n1-c1ccccc1` [Ex. 32, (S)-2-(1-((6-amino-5-(1-methyl-1H-1,2,4-triazol-3-yl)pyrimidin-4-yl)amino)-propyl)-5-chloro-3-phenylquinazolin-4(3H)-one], in data set [1], the “clearance (CL)” value was found to be 43.3 mL/min/kg, the bioavailability turned out to be 61%, the area under the curve AUC(0-t) came out at 390 ng·h/mL and the half-life was 37.8 min. Further, the Vd in data set [1] came to 1.51 L/kg. In data set [2], the half-life at 5 μM is 17.4 min and the CLint scaled at 5 μM was 100 mL/min/kg. For the same compound, on PI3K (p110δ/p85α) (h), the concentration for half-maximal inhibition (IC50) came to 70 nM. Besides, in data set [3], the half-life at 5 μM was determined as 20 min and the CLint scaled at 5 μM is 124 mL/min/kg.
`CC[C@H](Nc1ncnc(N)c1-c1nc(C)no1)c1nc2cccc(Cl)c2c(=O)n1[C@@H]1C[C@@H]1F` [Ex. 62, 2-((S)-1-((6-amino-5-(3-methyl-1,2,4-oxadiazol-5-yl)pyrimidin-4-yl)amino)propyl)-5-chloro-3-((1R,2S)-2-fluorocyclopropyl)quinazolin-4(3H)-one]: in data set [1], the “clearance (CL)” value was 71.8 mL/min/kg, the bioavailability was 27.7%, the AUC(0-t) is 238 ng·h/mL and the half-life is 81 min. In addition, in data set [1], the Vd came to 6.11 L/kg. Also, in data set [2], the half-life at 5 μM was determined as 50.4 min and the CLint scaled at 5 μM is 34.5 mL/min/kg. For the same compound, the IC50 on PI3K (p110δ/p85α) (h) is 37 nM. In addition, in data set [3], the half-life at 5 μM was 46.2 min and the CLint scaled at 5 μM was 53.7 mL/min/kg.
On to `CC[C@H](Nc1ncnc(N)c1-c1nnc(C)o1)c1nc2cccc(C)c2c(=O)n1-c1ccccc1C` [Ex. 31, (S)-2-(1-((6-amino-5-(5-methyl-1,3,4-oxadiazol-2-yl)pyrimidin-4-yl)amino)propyl)-5-methyl-3-(o-tolyl)quinazolin-4(3H)-one], for which, in data set [1], the “clearance (CL)” value came to 64.8 mL/min/kg, the bioavailability stood at 16.2%, the AUC(0-t) is 260 ng·h/mL and the half-life is 42 min. The Vd in data set [1] was 3.42 L/kg. In addition, in data set [2], the half-life at 5 μM came out at 7.56 min and the CLint scaled at 5 μM was 328 mL/min/kg. Besides, the half-inhibitory concentration (IC50) on PI3K (p110δ/p85α) (h) turned out to be 18 nM. Further, in data set [3], the half-life at 5 μM stood at 7.27 min and the CLint scaled at 5 μM is 342 mL/min/kg.
